Laboratory results from patent US20260297081A1, “COMPOUNDS AND METHODS OF TREATING CANCERS” (Cullgen Inc., priority 2023, published 2026).

System: MCF7 cells
Assay: Anti-proliferation (viability) of MCF7 cells (Table 7, FIG. 2B)
Type: cell-based
Details: Homo sapiens, MCF7, MCF7 cells, 3-6 days, 10-point serial dilution; read-out: GI IC50 in MCF-7

SMILES | IC50 [nM]
[2H]C([2H])([2H])Nc1ccc(C(=O)Nc2ccc(N(C)C)nn2)c(NC2CC3(C2)CN(C(=O)CCN2CCN(c4ccc(Nc5ncc6c(C)c(C(C)=O)c(=O)n(C7CCCC7)c6n5)nc4)CC2)C3)n1 [CPD-432, 2-((2-(3-(4-(6-((6-acetyl-8-cyclopentyl-5-methyl-7-oxo-7,8-dihydropyrido[2,3-d]pyrimidin-2-yl)amino)pyridin-3-yl)piperazin-1-yl)propanoyl)-2-azaspiro[3.3]heptan-6-yl)amino)-N-(6-(dimethylamino)pyridazin-3-yl)-6-((methyl-d3)amino)nicotinamide] | < 50
[2H]C([2H])([2H])Nc1ccc(C(=O)Nc2cc(C)n(C)n2)c(NC2CC3(C2)CN(C(=O)CC(N2CCN(c4ccc(Nc5ncc6c(C)c(C(C)=O)c(=O)n(C7CCCC7)c6n5)nc4)CC2)C(F)(F)F)C3)n1 (stereo not shown) [CPD-434, 2-((2-(3-(4-(6-((6-acetyl-8-cyclopentyl-5-methyl-7-oxo-7,8-dihydropyrido[2,3-d]pyrimidin-2-yl)amino)pyridin-3-yl)piperazin-1-yl)-4,4,4-trifluorobutanoyl)-2-azaspiro[3.3]heptan-6-yl)amino)-N-(1,5-dimethyl-1H-pyrazol-3-yl)-6-((methyl-d3)amino)nicotinamide] | < 50
[2H]C([2H])([2H])Nc1ccc(C(=O)Nc2cn(C)c(C3CC3)n2)c(NC2CC3(C2)CN(C(=O)CC(N2CCN(c4ccc(Nc5ncc6c(C)c(C(C)=O)c(=O)n(C7CCCC7)c6n5)nc4)CC2)C(F)(F)F)C3)n1 (stereo not shown) [CPD-435, 2-((2-(3-(4-(6-((6-acetyl-8-cyclopentyl-5-methyl-7-oxo-7,8-dihydropyrido[2,3-d]pyrimidin-2-yl)amino)pyridin-3-yl)piperazin-1-yl)-4,4,4-trifluorobutanoyl)-2-azaspiro[3.3]heptan-6-yl)amino)-N-(2-cyclopropyl-1-methyl-1H-imidazol-4-yl)-6-((methyl-d3)amino)nicotinamide] | < 50
CC(=O)c1c(C)c2cnc(Nc3ccc(N4CCN(C(CC(=O)N5CC6(CC(Nc7nc(NC(C)C)ccc7C(=O)Nc7cn(C)c(C8CC8)n7)C6)C5)C(F)(F)F)CC4)cn3)nc2n(C2CCCC2)c1=O (stereo not shown) [CPD-436, 2-((2-(3-(4-(6-((6-acetyl-8-cyclopentyl-5-methyl-7-oxo-7,8-dihydropyrido[2,3-d]pyrimidin-2-yl)amino)pyridin-3-yl)piperazin-1-yl)-4,4,4-trifluorobutanoyl)-2-azaspiro[3.3]heptan-6-yl)amino)-N-(2-cyclopropyl-1-methyl-1H-imidazol-4-yl)-6-(isopropylamino)nicotinamide] | < 50
[2H]C([2H])([2H])Nc1ccc(C(=O)Nc2ccc(N(C)C)nn2)c(NC2CCN(C(=O)CN3CCC4(CCN(c5ccc(Nc6ncc7c(C)c(C(C)=O)c(=O)n(C8CCCC8)c7n6)nc5)C4)C3)CC2)n1 (stereo not shown) [CPD-441, 2-((1-(2-(7-(6-((6-acetyl-8-cyclopentyl-5-methyl-7-oxo-7,8-dihydropyrido[2,3-d]pyrimidin-2-yl)amino)pyridin-3-yl)-2,7-diazaspiro[4.4]nonan-2-yl)acetyl)piperidin-4-yl)amino)-N-(6-(dimethylamino)pyridazin-3-yl)-6-((methyl-d3)amino)nicotinamide] | < 50
[2H]C([2H])([2H])Nc1ccc(C(=O)Nc2ccc(N(C)C)nn2)c(NC2CN(C(=O)CN3CCC4(CCN(c5ccc(Nc6ncc7c(C)c(C(C)=O)c(=O)n(C8CCCC8)c7n6)nc5)C4)C3)C2)n1 (stereo not shown) [CPD-442, 2-((1-(2-(7-(6-((6-acetyl-8-cyclopentyl-5-methyl-7-oxo-7,8-dihydropyrido[2,3-d]pyrimidin-2-yl)amino)pyridin-3-yl)-2,7-diazaspiro[4.4]nonan-2-yl)acetyl)azetidin-3-yl)amino)-N-(6-(dimethylamino)pyridazin-3-yl)-6-((methyl-d3)amino)nicotinamide] | > 100
[2H]C([2H])([2H])Nc1ccc(C(=O)Nc2ccc(N(C)C)nn2)c(NC2CC(CNC(=O)CN3CCC4(CCN(c5ccc(Nc6ncc7c(C)c(C(C)=O)c(=O)n(C8CCCC8)c7n6)nc5)C4)C3)C2)n1 (stereo not shown) [CPD-445, 2-((3-((2-(7-(6-((6-acetyl-8-cyclopentyl-5-methyl-7-oxo-7,8-dihydropyrido[2,3-d]pyrimidin-2-yl)amino)pyridin-3-yl)-2,7-diazaspiro[4.4]nonan-2-yl)acetamido)methyl)cyclobutyl)amino)-N-(6-(dimethylamino)pyridazin-3-yl)-6-((methyl-d3)amino)nicotinamide] | < 50

More lines, now with the values ahead:

IC50 [nM] | SMILES
50 to 100 | CC(=O)c1c(C)c2cnc(Nc3ccc(N4CCN(C(C)CC(=O)N5CCC(Nc6nc(NC(C)C)ccc6C(=O)Nc6cn(C)c(C7CC7)n6)CC5)CC4)cn3)nc2n(C2CCCC2)c1=O (stereo not shown) [CPD-431, 2-((1-(3-(4-(6-((6-acetyl-8-cyclopentyl-5-methyl-7-oxo-7,8-dihydropyrido[2,3-d]pyrimidin-2-yl)amino)pyridin-3-yl)piperazin-1-yl)butanoyl)piperidin-4-yl)amino)-N-(2-cyclopropyl-1-methyl-1H-imidazol-4-yl)-6-(isopropylamino)nicotinamide]
< 50 | CC(=O)c1c(C)c2cnc(Nc3ccc(N4CCN(C(CC(=O)N5CC6(CC(Nc7nc(NC(C)C)ccc7C(=O)Nc7cc(C)n(C)n7)C6)C5)C(F)(F)F)CC4)cn3)nc2n(C2CCCC2)c1=O (stereo not shown) [CPD-433, 2-((2-(3-(4-(6-((6-acetyl-8-cyclopentyl-5-methyl-7-oxo-7,8-dihydropyrido[2,3-d]pyrimidin-2-yl)amino)pyridin-3-yl)piperazin-1-yl)-4,4,4-trifluorobutanoyl)-2-azaspiro[3.3]heptan-6-yl)amino)-N-(1,5-dimethyl-1H-pyrazol-3-yl)-6-(isopropylamino)nicotinamide]
> 100 | CC(=O)c1c(C)c2cnc(Nc3ccc(N4CCC5(CC4)CC(C(=O)NC4CC6(C4)CC(Nc4nc(NC(C)C)ccc4C(=O)Nc4ccc(N(C)C)nn4)C6)C5)cn3)nc2n(C2CCCC2)c1=O (stereo not shown) [CPD-437, 7-(6-((6-acetyl-8-cyclopentyl-5-methyl-7-oxo-7,8-dihydropyrido[2,3-d]pyrimidin-2-yl)amino)pyridin-3-yl)-N-(6-((3-((6-(dimethylamino)pyridazin-3-yl)carbamoyl)-6-(isopropylamino)pyridin-2-yl)amino)spiro[3.3]heptan-2-yl)-7-azaspiro[3.5]nonane-2-carboxamide]
50 to 100 | [2H]C([2H])([2H])Nc1ccc(C(=O)Nc2ccc(N(C)C)nn2)c(NC2CC3(CC(NC(=O)C(C)N4CCN(c5ccc(Nc6ncc7c(C)c(C(C)=O)c(=O)n(C8CCCC8)c7n6)nc5)CC4)C3)C2)n1 (stereo not shown) [CPD-438, 2-((6-(2-(4-(6-((6-acetyl-8-cyclopentyl-5-methyl-7-oxo-7,8-dihydropyrido[2,3-d]pyrimidin-2-yl)amino)pyridin-3-yl)piperazin-1-yl)propanamido)spiro[3.3]heptan-2-yl)amino)-N-(6-(dimethylamino)pyridazin-3-yl)-6-((methyl-d3)amino)nicotinamide]
< 50 | [2H]C([2H])([2H])Nc1ccc(C(=O)Nc2ccc(N(C)C)nn2)c(NC2CC3(CC(NC(=O)C4CC45CCN(c4ccc(Nc6ncc7c(C)c(C(C)=O)c(=O)n(C8CCCC8)c7n6)nc4)CC5)C3)C2)n1 (stereo not shown) [CPD-439, 6-(6-((6-acetyl-8-cyclopentyl-5-methyl-7-oxo-7,8-dihydropyrido[2,3-d]pyrimidin-2-yl)amino)pyridin-3-yl)-N-(6-((3-((6-(dimethylamino)pyridazin-3-yl)carbamoyl)-6-((methyl-d3)amino)pyridin-2-yl)amino)spiro[3.3]heptan-2-yl)-6-azaspiro[2.5]octane-1-carboxamide]
< 50 | CC(=O)c1c(C)c2cnc(Nc3ccc(N4CCN(CC(=O)NC5CC6(C5)CC(Nc5nc(NC(C)C)ccc5C(=O)Nc5cc7n(n5)CCC7)C6)CC4)cn3)nc2n(C2CCCC2)c1=O (stereo not shown) [CPD-440, 2-((6-(2-(4-(6-((6-acetyl-8-cyclopentyl-5-methyl-7-oxo-7,8-dihydropyrido[2,3-d]pyrimidin-2-yl)amino)pyridin-3-yl)piperazin-1-yl)acetamido)spiro[3.3]heptan-2-yl)amino)-N-(5,6-dihydro-4H-pyrrolo[1,2-b]pyrazol-2-yl)-6-(isopropylamino)nicotinamide]
< 50 | [2H]C([2H])([2H])Nc1ccc(C(=O)Nc2cn(C)c(C3CC3)n2)c(NC2CC3(C2)CN(C(=O)CN2CCC4(CCN(c5ccc(Nc6ncc7c(C)c(C(C)=O)c(=O)n(C8CCCC8)c7n6)nc5)C4)C2)C3)n1 (stereo not shown) [CPD-443, 2-((2-(2-(7-(6-((6-acetyl-8-cyclopentyl-5-methyl-7-oxo-7,8-dihydropyrido[2,3-d]pyrimidin-2-yl)amino)pyridin-3-yl)-2,7-diazaspiro[4.4]nonan-2-yl)acetyl)-2-azaspiro[3.3]heptan-6-yl)amino)-N-(2-cyclopropyl-1-methyl-1H-imidazol-4-yl)-6-((methyl-d3)amino)nicotinamide]
< 50 | CC(=O)c1c(C)c2cnc(Nc3ccc(N4CCC5(CCN(CC(=O)N6CC7(CC(Nc8nc(NC(C)C)ccc8C(=O)Nc8cn(C)c(C9CC9)n8)C7)C6)C5)C4)cn3)nc2n(C2CCCC2)c1=O (stereo not shown) [CPD-444, 2-((2-(2-(7-(6-((6-acetyl-8-cyclopentyl-5-methyl-7-oxo-7,8-dihydropyrido[2,3-d]pyrimidin-2-yl)amino)pyridin-3-yl)-2,7-diazaspiro[4.4]nonan-2-yl)acetyl)-2-azaspiro[3.3]heptan-6-yl)amino)-N-(2-cyclopropyl-1-methyl-1H-imidazol-4-yl)-6-(isopropylamino)nicotinamide]
< 50 | [2H]C([2H])([2H])Nc1ccc(C(=O)Nc2ccc(N(C)C)nn2)c(NC2CC3(CC(NC(=O)CN4CCC5(CCN(c6ccc(Nc7ncc8c(C)c(C(C)=O)c(=O)n(C9CCCC9)c8n7)nc6)C5)C4)C3)C2)n1 (stereo not shown) [CPD-449, 2-((6-(2-(7-(6-((6-acetyl-8-cyclopentyl-5-methyl-7-oxo-7,8-dihydropyrido[2,3-d]pyrimidin-2-yl)amino)pyridin-3-yl)-2,7-diazaspiro[4.4]nonan-2-yl)acetamido)spiro[3.3]heptan-2-yl)amino)-N-(6-(dimethylamino)pyridazin-3-yl)-6-((methyl-d3)amino)nicotinamide]
